This passage reports T/C results from PubChem BioAssay AID206 (DTP/NCI, 2004).

Where “and” joins values, the source holds several entries; their conditions need not be identical. Equal entries are not always repeated. Inconclusive results are not listed.

This test has as its system nude mice, HT29 intrarenal xenograft, tumor weight T/C. Briefly: NCI In Vivo Anticancer Drug Screen. Data for tumor model HT29;CX-1 Human Adenocarcinoma (MER+) (intrarenal inoculation) in NU/NU Swiss (nude) mice. Particulars: endpoint: mean tumor weight change, higher = larger tumour. The procedure, abridged: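 Mice with transplanted tumors are dosed with compound while controls get vehicle only. Survival or tumor burden is then assessed per group, and the treated value is expressed relative to control.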

Setting [1] is: dose: 600.0 mg/kg/injection, schedule: Q04DX004 (sc), vehicle: Klucel (hydroxypropylcellulose) (HPC).
Setting [2] is: dose: 50.0 mg/kg/injection, schedule: Q04DX004 (sc), vehicle: saline.
[3] abbreviates: dose: 150.0 mg/kg/injection, schedule: Q04DX004 (sc), vehicle: saline with Tween-80.
Setting [4] is: dose: 300.0 mg/kg/injection, schedule: Q04DX004 (sc), vehicle: saline with Tween-80.
Setting [5] is: dose: 100.0 mg/kg/injection, schedule: Q04DX004 (sc), vehicle: saline.
[6] abbreviates: dose: 200.0 mg/kg/injection, schedule: Q04DX004 (sc), vehicle: saline.
The mark [7] stands for this setting: dose: 400.0 mg/kg/injection, schedule: Q04DX004 (sc), vehicle: saline.

`ClCC[N+]12CC[N+](CCCl)(CC1)C2`: the T/C was 37 % of control (dose: 50.0 mg/kg/injection, schedule: Q01DX010 (sc), vehicle: saline with Tween-80); 101 % of control (dose: 75.0 mg/kg/injection, schedule: Q04DX004 (sc), vehicle: water); 90 % of control (dose: 100.0 mg/kg/injection, schedule: Q01DX010 (sc), vehicle: saline with Tween-80); 107 % of control (dose: 150.0 mg/kg/injection, schedule: Q04DX004 (sc), vehicle: water); 96 % of control (dose: 200.0 mg/kg/injection, schedule: Q01DX010 (sc), vehicle: saline with Tween-80); 98 % of control and 101 % of control (dose: 300.0 mg/kg/injection, schedule: Q04DX004 (sc), vehicle: water). In addition, the T/C (dose: 600.0 mg/kg/injection, schedule: Q04DX004 (sc), vehicle: water) was 43 % of control.

In the case of `C[C@]12CCC(=O)C=C1CC[C@@H]1[C@@H]2[C@@H](O)C[C@@]2(C)[C@H]1CC[C@]2(O)C(=O)CO`, the T/C under setting [1] was 18 % of control and 26 % of control.

For `CNC(=O)ON(C(C)=O)C(=O)NC`, the T/C by setting is: (dose: 25.0 mg/kg/injection, schedule: Q01DX010 (sc), vehicle: saline) 75 % of control; (dose: 50.0 mg/kg/injection, schedule: Q01DX010 (sc), vehicle: saline) 109 % of control; under setting [2], 34 % of control; (dose: 100.0 mg/kg/injection, schedule: Q01DX010 (sc), vehicle: saline) 13 % of control; (dose: 100.0 mg/kg/injection, schedule: Q04DX004 (sc), vehicle: suspension in saline) 116 % of control; (dose: 150.0 mg/kg/injection, schedule: Q04DX004 (sc), vehicle: suspension in saline) 114 % of control. In addition, the T/C runs as follows: (dose: 200.0 mg/kg/injection, schedule: Q04DX004 (sc), vehicle: suspension in saline) 57 % of control; (dose: 250.0 mg/kg/injection, schedule: Q04DX004 (sc), vehicle: suspension in saline) 18 % of control.

For `CN=C(N)N/N=C(\C)c1ccc2oc3ccc(/C(C)=N/NC(N)=NC)cc3c2c1`, the T/C reads like this: (dose: 75.0 mg/kg/injection, schedule: Q04DX004 (sc), vehicle: saline with Tween-80) 156 % of control; under setting [3], 63 % of control; under setting [4], 98 % of control.

`OCCO`: the T/C is 85 % of control (dose: 4.0 % in 0.5 ml injection vol, schedule: Q04DX004 (sc), vehicle: other); 46 % of control (dose: 8.0 % in 0.5 ml injection vol, schedule: Q04DX004 (sc), vehicle: other); 26 % of control (dose: 16.0 % in 0.5 ml injection vol, schedule: Q04DX004 (sc), vehicle: other).

As to `Brc1c(NC2=NCCN2)ccc2nccnc12`, the T/C by setting is: (dose: 12.5 mg/kg/injection, schedule: Q04DX004 (sc), vehicle: saline) 113 % of control; (dose: 25.0 mg/kg/injection, schedule: Q04DX004 (sc), vehicle: saline) 92 % of control; under setting [2], 52 % of control; under setting [5], 93 % of control; under setting [6], 91 % of control; under setting [7], 79 % of control.

Turning to `CCCCCc1cc(O)c2c(c1)OC(C)(C)[C@@H]1CCC(C)=C[C@@H]21`, the T/C reads like this: (dose: 150.0 mg/kg/injection, schedule: Q04DX004 (sc), vehicle: other) 117 % of control; (dose: 300.0 mg/kg/injection, schedule: Q04DX004 (sc), vehicle: other) 76 % of control; (dose: 600.0 mg/kg/injection, schedule: Q04DX004 (sc), vehicle: other) 68 % of control; (dose: 1200.0 mg/kg/injection, schedule: Q04DX004 (sc), vehicle: other) 36 % of control.

In the case of `CC1(C)COCN1COC1CCCCC1`, under setting [5], the T/C is 34 % of control.

Regarding `N=C(N)Sc1cc(O)ccc1O`, the T/C runs as follows: (dose: 75.0 mg/kg/injection, schedule: Q04DX004 (sc), vehicle: saline) 49 % of control; (dose: 150.0 mg/kg/injection, schedule: Q04DX004 (sc), vehicle: saline) 54 % of control; (dose: 300.0 mg/kg/injection, schedule: Q04DX004 (sc), vehicle: saline) 54 % of control.

On to `COc1cc(Cl)ccc1C`, for which the T/C runs as follows: under setting [4], 64 % of control; (dose: 600.0 mg/kg/injection, schedule: Q04DX004 (sc), vehicle: saline with Tween-80) 90 % of control; (dose: 1200.0 mg/kg/injection, schedule: Q04DX004 (sc), vehicle: saline with Tween-80) 76 % of control; (dose: 2400.0 mg/kg/injection, schedule: Q04DX004 (sc), vehicle: saline with Tween-80) 84 % of control.

Turning to `COc1ccc(CC2C(=O)NC(C)C(=O)N(C)C3Cc4ccc(cc4)Oc4cc(ccc4O)CC(C(=O)NC(C)C(=O)NC(C)C(=O)N2C)N(C)C3=O)cc1` (stereo not given), the T/C is, setting by setting: (dose: 1.0 mg/kg/injection, schedule: Q04DX004 (sc), vehicle: saline with Tween-80) 59 % of control; (dose: 2.0 mg/kg/injection, schedule: Q04DX004 (sc), vehicle: saline with Tween-80) 64 % of control; (dose: 4.0 mg/kg/injection, schedule: Q04DX004 (sc), vehicle: saline with Tween-80) 70 % of control; (dose: 8.0 mg/kg/injection, schedule: Q04DX004 (sc), vehicle: saline with Tween-80) 56 % of control and 68 % of control; (dose: 16.0 mg/kg/injection, schedule: Q04DX004 (sc), vehicle: saline with Tween-80) 70 % of control.

Turning to `COc1ccc(C[C@H](N)C(=O)NC2C(CO)OC(n3cnc4c(N(C)C)ncnc43)C2O)cc1` (stereo not given in full), the T/C is 174 % of control under setting [5], 96 % of control under setting [6] and 185 % of control under setting [7].

For the molecule `O=C1C=C(C2OC(CO)C(O)C2O)C(=O)N1` (stereo not given), the T/C was 78 % of control (dose: 6.25 mg/kg/injection, schedule: Q01DX010 (sc), vehicle: saline) and 78 % of control (dose: 12.5 mg/kg/injection, schedule: Q01DX010 (sc), vehicle: saline).

Turning to `Brc1ccc(C[N+]23CN4CN(CN(C4)C2)C3)cc1`, the T/C under setting [3] was 69 % of control and the T/C under setting [4] was 101 % of control.

Consider `COc1cccc2c1C(=O)c1c(O)c3c(c(O)c1C2=O)C[C@@](O)(C(=O)CO)C[C@@H]3OC1CC(N(C)C)C(O)C(C)O1` (stereo not given in full), for which the T/C runs as follows: (dose: 1.0 mg/kg/injection, schedule: Q01DX010 (sc), vehicle: water) 19 % of control; (dose: 2.0 mg/kg/injection, schedule: Q01DX010 (sc), vehicle: water) 94 % of control; (dose: 4.0 mg/kg/injection, schedule: Q01DX010 (sc), vehicle: water) 29 % of control.

Regarding `CCCCCCCCCCCCCCCCCCCCCC(=O)Nc1ccn(C2OC(CO)C(O)C2O)c(=O)n1` (stereo not given), the T/C runs as follows: (dose: 225.0 mg/kg/injection, schedule: Q04DX004 (sc), vehicle: saline with Tween-80) 65 % of control; (dose: 450.0 mg/kg/injection, schedule: Q04DX004 (sc), vehicle: saline with Tween-80) 88 % of control; (dose: 900.0 mg/kg/injection, schedule: Q04DX004 (sc), vehicle: saline with Tween-80) 64 % of control; (dose: 1800.0 mg/kg/injection, schedule: Q04DX004 (sc), vehicle: saline with Tween-80) 72 % of control.

Turning to `CCCCCC(O)C1C(=O)OC(C)C(O)/C=C/C=C/C=C/C=C\C=C(\C)C(O)CC(O)CC(O)CC(O)CC(O)CC(O)CC1O` (stereo not given), the T/C is 73 % of control (dose: 37.5 mg/kg/injection, schedule: Q04DX004 (sc), vehicle: distilled water + alcohol); 110 % of control (dose: 75.0 mg/kg/injection, schedule: Q04DX004 (sc), vehicle: distilled water + alcohol); 107 % of control (dose: 150.0 mg/kg/injection, schedule: Q04DX004 (sc), vehicle: distilled water + alcohol).

For `CCCCCCCCNc1cc2c3c(c1)CCCN3CCC2`, the T/C is, setting by setting: (dose: 3.0 mg/kg/injection, schedule: Q04DX004 (sc), vehicle: Klucel (hydroxypropylcellulose) (HPC)) 69 % of control; (dose: 6.0 mg/kg/injection, schedule: Q04DX004 (sc), vehicle: Klucel (hydroxypropylcellulose) (HPC)) 103 % of control; (dose: 12.0 mg/kg/injection, schedule: Q04DX004 (sc), vehicle: Klucel (hydroxypropylcellulose) (HPC)) 73 % of control.

In the case of `CN=S(=O)(OCCCCCOS(=O)(=NC)c1ccc(C)cc1)c1ccc(C)cc1` (stereo not given), the T/C under setting [3] is 81 % of control.

On to `COc1c(CNC(=O)CCl)cc2[nH]c(C)cc2c1CNC(=O)CCl`, for which the T/C is 192 % of control (dose: 300.0 mg/kg/injection, schedule: Q04DX004 (sc), vehicle: Klucel (hydroxypropylcellulose) (HPC)) and 124 % of control under setting [1].

With `CC(=O)Oc1c(C)[nH]ccc1=O`, the T/C is 112 % of control (dose: 600.0 mg/kg/injection, schedule: Q04DX004 (sc), vehicle: suspension in saline) and 77 % of control (dose: 1200.0 mg/kg/injection, schedule: Q04DX004 (sc), vehicle: suspension in saline).
